Earlier results as cited in US12324811B2, “Intranasal formulation” (CIPLA LIMITED, priority 2018, dated 2025).

Experiments:
[1] = active metabolite
[2] = oral administration
[3] = intranasally administered, children and adults

| Compound | contribution to biological activity of midazolam [1] [%] | drug reaching the bloodstream [2] [%] | onset of action [3] |
| --- | --- | --- | --- |
| OCc1ncc2n1-c1ccc(Cl)cc1C(c1ccccc1F)=NC2 [alpha1-hydroxymidazolam] | 10 | – | – |
| Midazolam | – | 50 | about 10 minutes |
